Measured values reported in the supplement of paper PMC10307832.

How the values were obtained:
Assay in all cases: relative viability (nuclei count vs DMSO), 5 days (fraction); higher = more cells survive
Adavosertib + Lapatinib = compound: C=CCn1c(=O)c2cnc(Nc3ccc(N4CCN(C)CC4)cc3)nc2n1-c1cccc(C(C)(C)O)n1 [Adavosertib] + CS(=O)(=O)CCNCc1ccc(-c2ccc3ncnc(Nc4ccc(OCc5cccc(F)c5)c(Cl)c4)c3c2)o1 [Lapatinib] (partner 2 µM)
Method in brief: (§1)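 Relative viability equals treated-well nuclei counts divided by vehicle-well nuclei counts. Counts came from 4× images of lung cancer cell lines grown in 1536-well plates for 5 days after pin-tool dosing on the day after seeding. Dosing used one drug alone or a fixed anchor-drug dose plus five library-drug doses (not always all listed) in √10 steps, and values are medians of duplicate plates.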

Adavosertib + Trametinib = compound: C=CCn1c(=O)c2cnc(Nc3ccc(N4CCN(C)CC4)cc3)nc2n1-c1cccc(C(C)(C)O)n1 [Adavosertib] + CC(=O)Nc1cccc(-n2c(=O)n(C3CC3)c(=O)c3c(Nc4ccc(I)cc4F)n(C)c(=O)c(C)c32)c1 [Trametinib] (partner 0.02 µM)
Method in brief: as §1

Adavosertib + Pictilisib = compound: C=CCn1c(=O)c2cnc(Nc3ccc(N4CCN(C)CC4)cc3)nc2n1-c1cccc(C(C)(C)O)n1 [Adavosertib] + CS(=O)(=O)N1CCN(Cc2cc3nc(-c4cccc5[nH]ncc45)nc(N4CCOCC4)c3s2)CC1 [Pictilisib] (partner 1 µM)
Method in brief: as §1

Nelarabine + Phenformin = compound: COc1nc(N)nc2c1ncn2[C@@H]1O[C@H](CO)[C@@H](O)[C@@H]1O [Nelarabine] + N=C(N)NC(=N)NCCc1ccccc1 [Phenformin] (partner 250 µM)
Method in brief: as §1

Adavosertib + Olaparib = compound: C=CCn1c(=O)c2cnc(Nc3ccc(N4CCN(C)CC4)cc3)nc2n1-c1cccc(C(C)(C)O)n1 [Adavosertib] + O=C(c1cc(Cc2n[nH]c(=O)c3ccccc23)ccc1F)N1CCN(C(=O)C2CC2)CC1 [Olaparib] (partner 8 µM)
Method in brief: as §1

EMC-BAC-2
relative viability (Adavosertib + Lapatinib; first compound 0.01 µM): 0.882
relative viability (Adavosertib + Lapatinib; first compound 0.03162 µM): 0.869
relative viability (Adavosertib + Lapatinib; first compound 0.1 µM): 0.927
relative viability (Adavosertib + Lapatinib; first compound 0.3162 µM): 0.978
relative viability (Adavosertib + Trametinib; first compound 0.03162 µM): 0.938
relative viability (Adavosertib + Trametinib; first compound 0.1 µM): 0.894
relative viability (Adavosertib + Trametinib; first compound 0.3162 µM): 0.927
relative viability (Adavosertib + Pictilisib; first compound 0.01 µM): 0.544
relative viability (Adavosertib + Pictilisib; first compound 0.03162 µM): 0.56
relative viability (Adavosertib + Pictilisib; first compound 0.1 µM): 0.583
relative viability (Adavosertib + Pictilisib; first compound 0.3162 µM): 0.544
relative viability (Nelarabine + Phenformin; first compound 0.01 µM): 0.587
relative viability (Nelarabine + Phenformin; first compound 0.03162 µM): 0.463
relative viability (Nelarabine + Phenformin; first compound 0.1 µM): 0.493
relative viability (Nelarabine + Phenformin; first compound 0.3162 µM): 0.517
relative viability (Nelarabine + Phenformin; first compound 1 µM): 0.539
relative viability (Adavosertib + Olaparib; first compound 0.03162 µM): 0.493
relative viability (Adavosertib + Olaparib; first compound 0.1 µM): 0.51
relative viability (Adavosertib + Olaparib; first compound 0.3162 µM): 0.453
